How the values were obtained:
[1] = In vitro elution of histrelin from HP-60D-20 polyurethane implant (Example 1); type: physicochemical; settings: HP-60D-20 implant, approx. 37° C.
Experimental: HP-60D-20 is extruded to tubes with thickness of 0.30 mm with inside diameter of 1.75 mm. The tubes are then cut into 25 mm in length. One side of the tube is sealed with heat using a heat sealer. The sealing time is less than one minute. Four pellets of histrelin acetate are loaded into the tube. Each pellet weighs approximately 13.5 mg for a total of 54 mg. Each pellet is comprised of a mixture of 98% histrelin and 2% stearic acid. The second end open of the tube is sealed with heat in the same way as for the first end. The loaded implant is then conditioned and primed. The conditioning takes place at room temperature in a 0.9% saline solution for one day. Upon completion of the conditioning, the implant undergoes priming. The priming takes place at room temperatures in a 1.8% saline solution for one day. Each implant is tested in vitro in a medium selected to mimic the pH found in the human body. The temperature of the selected medium was kept at approximately 37° C. during the testing. The release rates are shown on FIG. 4 and Table 2.

[2] = Release rates of histrelin from Tecophilic, Tecoflex and Carbothane polyurethane implants (Example 3); type: physicochemical; settings: for Release rate normalized to surface area of the implant: 2% SA, 50 mg API
Text: Tables 2A-C show release rates of histrelin from three different classes of polyurethane compounds (Tecophilic®, Tecoflex® and Carbothane®). The release rates have been normalized to surface area of the implant, thereby adjusting for slight differences in the size of the various implantable devices. Histrelin is very soluble in water. Typically, a Log P value of greater than about 2.0 is considered to be not readily soluble in aqueous solution. The polyurethanes were selected to have varying affinities for water soluble active agents and varying flexibility (as indicated by the variation in flex modulus). […] Polyurethanes are available or can be prepared, for example, with a range of EWCs or flex moduli (Table 2). Tables 2A-C show normalized release rates for various active ingredients from polyurethane compounds. Tables 2D-F show the non-normalized release rates for the same active ingredients, together with implant composition.

Histrelin elution rate ([1]; week 1 of elution): 451.733 µg/day
Histrelin elution rate ([1]; week 2 of elution): 582.666 µg/day
Histrelin elution rate ([1]; week 3 of elution): 395.9 µg/day
Histrelin elution rate ([1]; week 4 of elution): 310.29 µg/day
Histrelin elution rate ([1]; week 5 of elution): 264.92 µg/day
Histrelin elution rate ([1]; week 6 of elution): 247.17 µg/day
Histrelin elution rate ([1]; week 7 of elution): 215.93 µg/day
Histrelin elution rate ([1]; week 8 of elution): 201.78 µg/day
Histrelin elution rate ([1]; week 9 of elution): 183.22 µg/day
Histrelin elution rate ([1]; week 10 of elution): 174.99 µg/day
Histrelin elution rate ([1]; week 11 of elution): 167.72 µg/day
Histrelin elution rate ([1]; week 12 of elution): 158.37 µg/day
Histrelin elution rate ([1]; week 13 of elution): 153.95 µg/day
Histrelin elution rate ([1]; week 14 of elution): 146.46 µg/day
Histrelin elution rate ([1]; week 15 of elution): 139.83 µg/day
Histrelin elution rate ([1]; week 16 of elution): 129.6 µg/day
Histrelin elution rate ([1]; week 17 of elution): 124.46 µg/day
Histrelin elution rate ([1]; week 18 of elution): 118.12 µg/day
Histrelin elution rate ([1]; week 19 of elution): 120.35 µg/day
Release rate normalized to surface area of the implant ([2]; Carbothane PC-3595A, F.M.: 4,500): 0.2 μg/day/cm^2
Non-normalized release rate ([2]; Carbothane PC-3595A, F.M.: 4,500, ID 1.85 mm, wall 0.20 mm, L 25.25 mm, 1.625 cm^2): 0.4 µg/day
Release rate normalized to surface area of the implant ([2]; Tecoflex EG 100A, F.M.: 10,000): 0.3 μg/day/cm^2
Non-normalized release rate ([2]; Tecoflex EG 100A, F.M.: 10,000, ID 1.85 mm, wall 0.20 mm, L 25.56 mm, 1.645 cm^2): 0.5 µg/day
Release rate normalized to surface area of the implant ([2]; Tecophilic HP-60D-20, 15% EWC): 93 μg/day/cm^2
Non-normalized release rate ([2]; Tecophilic HP-60D-20, 15% EWC, ID 1.80 mm, wall 0.30 mm, L 24.5 mm, 1.616 cm^2): 150 µg/day
Release rate normalized to surface area of the implant ([2]; Tecophilic HP-60D-35, 24% EWC): 248 μg/day/cm^2
Non-normalized release rate ([2]; Tecophilic HP-60D-35, 24% EWC, ID 1.80 mm, wall 0.30 mm, L 24.5 mm, 1.616 cm^2): 400 µg/day
Release rate normalized to surface area of the implant ([2]; Tecophilic HP-60D-60, 31% EWC): 309 μg/day/cm^2
Non-normalized release rate ([2]; Tecophilic HP-60D-60, 31% EWC, ID 1.80 mm, wall 0.30 mm, L 24.5 mm, 1.616 cm^2): 500 µg/day
Compound: CCNC(=O)[C@@H]1CCCN1C(=O)[C@H](CCCNC(=N)N)NC(=O)[C@H](CC(C)C)NC(=O)[C@@H](Cc1cn(Cc2ccccc2)cn1)NC(=O)[C@H](Cc1ccc(O)cc1)NC(=O)[C@H](CO)NC(=O)[C@H](Cc1c[nH]c2ccccc12)NC(=O)[C@H](Cc1cnc[nH]1)NC(=O)[C@@H]1CCC(=O)N1 [Histrelin Acetate, Histrelin acetate]

Source: patent publication US20110236456A1, “IMPLANTABLE DEVICE FOR THE DELIVERY OF HISTRELIN AND METHODS OF USE THEREOF” (Endo Pharmaceuticals Solutions Inc., priority 2008, published 2011)
